This assay deals with T1, G9a (Homo sapiens, UniProt Q96KQ7).
T1 construct: His6 (N); made in house; host or cells: E. coli BL21 (DE3)pLysS-rosetta
T1 sequence (Q96KQ7 1-1210): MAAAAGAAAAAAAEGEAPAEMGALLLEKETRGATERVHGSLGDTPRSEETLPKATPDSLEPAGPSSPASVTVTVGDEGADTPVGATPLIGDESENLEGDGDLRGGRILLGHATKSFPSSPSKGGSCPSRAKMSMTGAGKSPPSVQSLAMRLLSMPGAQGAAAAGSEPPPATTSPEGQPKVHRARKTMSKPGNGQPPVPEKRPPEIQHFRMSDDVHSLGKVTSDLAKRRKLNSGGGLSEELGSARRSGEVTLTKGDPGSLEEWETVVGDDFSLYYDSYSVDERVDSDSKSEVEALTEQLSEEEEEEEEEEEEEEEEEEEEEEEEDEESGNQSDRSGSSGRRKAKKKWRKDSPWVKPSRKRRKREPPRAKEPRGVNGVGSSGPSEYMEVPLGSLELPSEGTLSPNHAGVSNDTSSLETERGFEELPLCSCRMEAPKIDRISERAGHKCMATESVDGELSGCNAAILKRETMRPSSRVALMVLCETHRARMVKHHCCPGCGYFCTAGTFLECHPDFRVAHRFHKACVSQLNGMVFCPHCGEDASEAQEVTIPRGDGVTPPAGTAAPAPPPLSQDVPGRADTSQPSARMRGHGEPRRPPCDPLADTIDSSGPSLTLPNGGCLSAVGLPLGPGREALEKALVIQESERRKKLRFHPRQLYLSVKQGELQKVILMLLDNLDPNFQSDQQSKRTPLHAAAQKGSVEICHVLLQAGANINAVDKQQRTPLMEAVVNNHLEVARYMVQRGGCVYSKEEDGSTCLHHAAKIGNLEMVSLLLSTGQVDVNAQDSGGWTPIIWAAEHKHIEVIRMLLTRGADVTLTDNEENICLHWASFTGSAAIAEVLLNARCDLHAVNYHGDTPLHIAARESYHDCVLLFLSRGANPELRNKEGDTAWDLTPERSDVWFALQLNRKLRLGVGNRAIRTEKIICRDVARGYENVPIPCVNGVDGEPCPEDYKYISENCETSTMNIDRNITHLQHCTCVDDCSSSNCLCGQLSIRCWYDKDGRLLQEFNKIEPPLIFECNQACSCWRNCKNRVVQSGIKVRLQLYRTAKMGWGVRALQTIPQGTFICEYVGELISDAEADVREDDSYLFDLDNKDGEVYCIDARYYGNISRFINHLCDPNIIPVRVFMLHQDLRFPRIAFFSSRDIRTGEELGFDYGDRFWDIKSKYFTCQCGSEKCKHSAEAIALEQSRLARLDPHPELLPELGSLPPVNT
The assay is described as follows: MALDI-TOF MS methylation assay of H3K9 peptides with G9a. The class given is biochemical. The conditions noted are these: peptide 100 µM, G9a 2 µM, SAM 500 µM, 1 h, 37 °C. Here is the method:
MALDI-MS methyltransferases activity experiments were performed using a Bruker instrument in the reflectron positive mode. For regular methyltransferase standard conditions experiment which carried out in 30 µL total volume, the mixture contains peptide (100 µM), SAM (200 µM), SETD8 or SETD7 (2 µM), in assay buffer 50 mM Tris at optimal pH 8.0. In case of G9a and GLP, similar conditions were used, except (500 µM) of SAM was added to the reaction mixture. Samples were incubated in an Eppendorf vial 1.5 mL using thermomixer for 1 h at 37 °C. A 5 µL aliquot of the solution was mixed with 5 µL of MeOH, after which 5 µL of this mixture was mixed with 5 µL of α-cyano-4-hydroxycinamic acid matrix (CHCA, 5 mg/mL in 125:125 µL acetonitrile/water). The spots were placed on a stainless steel MALDI plate (MS 96 target ground steel BC of Bruker, Germany). The mass corresponding to one monomethylation observed as +14 Da, dimethylation observed as +28 Da and trimethylation observed as +42 Da. The enzymatic activity was determined by taking the peak areas of each methylation state, including all isotopes and adducts, and was annotated using FlexAnalysis software (Bruker Daltonics, Germany). […] Methylated peptide substrates were repeated five times and the unmethylated substrates were triplicated. Sequences of the examined peptides are given in (Supplementary Table 1).

Regarding ARTKQTAR(Kba9)STGGKA [H3Kba9], the “G9a-catalyzed methylation, result in words” value is reported as “traces detected”. Also, the “G9a-catalyzed methylation, result in words” value (listed as H3K ba9) is recorded as “trace of monomethylation”.

The values above are taken from PMC7048932, “Examining sterically demanding lysine analogs for histone lysine methyltransferase catalysis” (Scientific Reports, 2020).
